In patent publication US20080221074A1, “Drug Screen and Treatment Method” (priority 2006, published 2008):

Legend:
[1] = test system: glucose intolerance in DIO mice; assay: diet induced obesity (DIO) mouse hyperglycemia treatment; type: in vivo; details: 20, 40 or 80 mg/kg twice a day up to 28 days
Description: Diet induced obesity (DIO) mouse hyperglycemia treatment. The effect of a drug to enhance peripheral sensitivity to insulin can be studied in a mouse model in which a state of insulin resistance is attained by feeding the animals a fat-enriched diet (60% of total caloric intake) for at least 6 weeks. This model has been described, e.g., J. N. Thupari et al., Proc. Natl. Acad. Sci. USA, 99(14):9498-9502, 2002, H. Xu et al., J. Clin. Invest., 112:1821-1830, 2003, H. Takahashi et al., J. Biol. Chem., 278(47):46654-46660, 2003.
For these studies, animals of approximately […] of age were divided into groups of 10 animals each and then treated with a vehicle control (no drug) or 17α-ethynylandrost-5-ene-3β,7β,17β-triol by oral gavage. The 17α-ethynylandrost-5-ene-3β,7β,17β-triol was administered at 20 mg/kg, 40 mg/kg or 80 mg/kg twice a day for up to 28 days. At day 14 and day 28 during the dosing period an OGTT was performed.

[2] = test system: collagen induced arthritis; assay: collagen induced arthritis (bCII), Foxp3+ cells and clinical score; type: in vivo, DBA/1Lac/J mice
Method: Increase of CD4^+CD25^+ T regulatory cells or their activity in vivo. The compound 17α-ethynylandrost-5-ene-3β,7β,17β-triol was administered to mice essentially as described in a previously described collagen induced arthritis animal model. H. Offner et al., Clin. Immunol., 110:181-190, 2006.
DBA/1Lac/J mice were used for the study. The mice were obtained from Jackson Laboratories (Bar Harbor, Harbor, […].) and housed in accordance with applicable institutional guidelines. Bovine type II collagen (bCII) was used to induce collagen induced arthritis (CIA) by immunizing 8-week-old mice with 200 μg of bCII emulsified 1:1 with CFA containing 200 μg Mycobacterium tuberculosis (100 μL; Difco, Detroit, Mich.). The antigen was injected intradermally at the base of the tail. The animals were monitored for 4-7 weeks to observe the onset and progression of the disease post-immunization. The arthritic severity was evaluated with a grading system for each paw according to the following scale: 0=no redness or swelling; 1=slight swelling in ankle or redness in foot; 2=progressed swelling and inflammation and redness from ankle to mid foot; 3=swelling and inflammation of entire foot; 4=swelling and inflammation of entire foot including toes.
After immunization, the mice were treated with the drug at 40 mg/kg/day in vehicle by oral gavage beginning at the start of observable clinical disease (beginning at about 26-27 days after immunization). The vehicle that was used for the protocol was 30% cyclodextrin-sulfobutylether in water. The cyclodextrin-sulfobutylether was obtained commercially (Captisol™ available at cydexinc.com). The drug formulation was 20 mg drug/mL in the vehicle.

[3] = test system: carrageenan-λ induced pleurisy; assay: carrageenan-λ induced lung (pleural cavity) inflammation; type: in vivo, CD1 male mice; details: oral gavage; 1 mg and 0.1 mg (17α-ethynyl triol), 40 mg/kg (17β-amino compound)

C#C[C@]1(O)CC[C@H]2[C@@H]3[C@@H](O)C=C4C[C@@H](O)CC[C@]4(C)[C@H]3CC[C@@]21C [17α-ethynylandrost-5-ene-3β,7β,17β-triol]
glucose intolerance (OGTT glycemic excursion) vs vehicle [1]: notably reduced glucose intolerance | Foxp3^+ CD4^+ cells by cell sorter analysis ([2]; 40 mg/kg/day oral gavage): 1.4% | maximum mean clinical score ([2]; day 34 after immunization): about 5 | mean clinical score ([2]; day 49 after immunization): about 3 | anti-inflammation activity compared to vehicle controls [3]: statistically significant anti-inflammation activity
